Data reported in ChEMBL document CHEMBL5046231, “Modulation of Naturally Occurring Linear Dipeptide Chirality to Reduce the Affinity for Oligopeptide Transporter 1 and Increase Intestinal Stability for an Enhanced Colon-Targeting Effect in the Treatment of Inflammatory Bowel Disease: An Application of trans-4-l-Hydroxyprolyl-l-serine” (J Med Chem, 2022).
Calls of active or inactive are those of the source. The calls are words filed in the database; no cut-off is given here.

How the values were obtained:
[1] = Stability in simulated intestinal fluid at pH 6.8 assessed as half life measured up to 12 hrs by HPLC analysis; assay type: ADME
Mus musculus [2] = assay: Anti-colitis activity against DSS-induced colitis in C57BL/6 mouse model assessed as decrease in MPO level in colon at 25 mg/kg, po administered via gavage twice a day for 10 days; assay type: functional; parameters: scale not given: the % may be the effect or the level left; details: time 10 day
Mus musculus [3] = assay: Antiinflammatory activity in DSS-induced C57BL/6 mouse model of colitis assessed as decrease in […] level 25 to 100 mg/kg, po administered via gavage twice a day for 10 days; assay type: functional, organism-based; details: dose 25-100 mg/kg, time 10.0 day
Mus musculus [4] = assay: Anti-colitis activity against DSS-induced colitis in C57BL/6 mouse model assessed as assessed as recovery of body weight at 25 mg/kg, po administered via gavage twice daily for 10 days; assay type: functional, organism-based; details: time 10.0 day
[5] = Toxicity in healthy C57BL/6 mouse assessed as histological changes in liver at 100 mg/kg, po administered for 10 days by H and E staining based assay; assay type: organism-based; details: in vivo, 240 h, time 10 day
[6] = Metabolic stability in healthy C57BL/6 mouse colon assessed as half life measured up to 12 hrs by HPLC analysis; assay type: ADME, tissue-based
[7] = Tmax in DSS-induced colitis C57BL/6 mouse model at 25 mg/kg, po measured up to 6 hrs by UPLC-MS/MS analysis; assay type: ADME, organism-based; details: in vivo
Mus musculus [8] = assay: Anti-colitis activity against DSS-induced colitis in C57BL/6 mouse model assessed as decrease in MPO level in colon at 50 mg/kg, po administered via gavage twice a day for 10 days; assay type: functional; parameters: scale not given: the % may be the effect or the level left; details: time 10 day
[9] = Chemical stability in phosphate buffer at pH 7.2 assessed as half life measured up to 12 hrs by HPLC analysis; assay type: physicochemical
[10] = Toxicity in healthy C57BL/6 mouse assessed as histological changes in kidney at 100 mg/kg, po administered for 10 days by H and E staining based assay; assay type: organism-based; details: in vivo, 240 h, time 10 day
[11] = Metabolic stability in DSS-induced C57BL/6 mouse colon assessed as half life measured up to 12 hrs by HPLC analysis; assay type: ADME, tissue-based
[12] = Metabolic stability in healthy C57BL/6 mouse plasma assessed as half life measured up to 12 hrs by HPLC analysis; assay type: ADME, cell-free
[13] = Toxicity in healthy C57BL/6 mouse assessed as histological changes in lung at 100 mg/kg, po administered for 10 days by H and E staining based assay; assay type: organism-based; details: in vivo, 240 h, time 10 day
Mus musculus [14] = assay: Anti-colitis activity against DSS-induced colitis in C57BL/6 mouse model assessed as fold decrease in disease activity index at 25 mg/kg, po administered via gavage twice daily for 10 days relative to control; assay type: functional; details: time 10 day
Mus musculus [15] = assay: Anti-colitis activity against DSS-induced colitis in C57BL/6 mouse model assessed as increase in colon length at 25 mg/kg, po administered via gavage twice daily for 10 days; assay type: functional, organism-based; details: time 10.0 day
[16] = AUC (0 to 6 hrs) in healthy C57BL/6 mouse at 25 mg/kg, po measured up to 6 hrs by UPLC-MS/MS analysis; assay type: ADME, organism-based; parameters: route oral, dose 25 mg/kg, time <=6; details: in vivo
Mus musculus [17] = assay: Antiinflammatory activity in DSS-induced C57BL/6 mouse model of colitis assessed as decrease in TNF-alpha level 25 to 100 mg/kg, po administered via gavage twice a day for 10 days; assay type: functional, organism-based; details: dose 25-100 mg/kg, time 10.0 day
[18] = Stability in human Caco-2 cells homogenate assessed as half life measured up to 12 hrs by HPLC analysis; assay type: ADME, cell-based; details: Caco-2 cell homogenate
[19] = Chemical stability in phosphate buffer at pH 6.8 assessed as half life measured up to 12 hrs by HPLC analysis; assay type: physicochemical
[20] = Toxicity in healthy C57BL/6 mouse assessed as histological changes in heart at 100 mg/kg, po administered for 10 days by H and E staining based assay; assay type: organism-based; details: in vivo, 240 h, time 10 day
[21] = Chemical stability in acetate buffer at pH 4.5 assessed as half life measured up to 12 hrs by HPLC analysis; assay type: physicochemical
[22] = target: T1, Solute carrier family 15 member 1 (Homo sapiens, UniProt P46059); assay: Substrate activity at PEPT1 in human Caco-2 cells assessed as inhibition of Gly-Sar substrate uptake by UPLC-MS/MS analysis; assay type: cell-based; details: human, caco-2
T1 sequence (P46059 whole entry): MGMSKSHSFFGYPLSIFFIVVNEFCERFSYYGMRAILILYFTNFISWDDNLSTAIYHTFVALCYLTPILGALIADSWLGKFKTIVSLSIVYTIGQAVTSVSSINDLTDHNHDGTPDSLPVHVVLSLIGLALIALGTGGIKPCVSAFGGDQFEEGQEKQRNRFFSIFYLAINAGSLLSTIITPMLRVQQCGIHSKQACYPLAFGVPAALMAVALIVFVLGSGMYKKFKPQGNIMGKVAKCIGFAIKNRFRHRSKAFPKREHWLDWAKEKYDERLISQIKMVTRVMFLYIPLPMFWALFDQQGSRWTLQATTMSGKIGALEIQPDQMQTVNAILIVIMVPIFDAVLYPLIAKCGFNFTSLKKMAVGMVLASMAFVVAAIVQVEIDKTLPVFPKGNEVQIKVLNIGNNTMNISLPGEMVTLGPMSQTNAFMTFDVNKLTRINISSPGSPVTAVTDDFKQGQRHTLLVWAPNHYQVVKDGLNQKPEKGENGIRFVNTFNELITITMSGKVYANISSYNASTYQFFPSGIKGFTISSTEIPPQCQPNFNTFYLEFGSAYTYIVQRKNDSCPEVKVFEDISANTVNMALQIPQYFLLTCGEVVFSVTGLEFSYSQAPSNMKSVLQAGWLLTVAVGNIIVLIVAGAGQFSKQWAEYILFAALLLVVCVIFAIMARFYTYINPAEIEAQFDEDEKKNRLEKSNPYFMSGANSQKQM

Mus musculus [23] = assay: Anti-colitis activity against DSS-induced C57BL/6 mouse model of colitis assessed as decrease in MPO level in colon at 100 mg/kg, po administered via gavage twice a day for 10 days; assay type: functional; parameters: scale not given: the % may be the effect or the level left; details: time 10 day
[24] = Chemical stability in 0.1 M HCl at pH 1.2 assessed as half life measured up to 12 hrs by HPLC analysis; assay type: physicochemical
Mus musculus [25] = assay: Antiinflammatory activity in DSS-induced C57BL/6 mouse model of colitis assessed as decrease in IL-1beta level 25 to 100 mg/kg, po administered via gavage twice a day for 10 days; assay type: functional, organism-based; details: dose 25-100 mg/kg, time 10.0 day
Mus musculus [26] = assay: Anti-colitis activity against DSS-induced C57BL/6 mouse model of colitis assessed as fold change in colon length at 25 to 100 mg/kg, po administered via gavage twice a day for 10 days relative to SASP; assay type: functional; details: dose 25-100 mg/kg; time 10 day
Mus musculus [27] = assay: Antiinflammatory activity in DSS-induced C57BL/6 mouse model of colitis assessed as increase in IL-10 level 25 to 100 mg/kg, po administered via gavage twice a day for 10 days; assay type: functional, organism-based; details: dose 25-100 mg/kg, time 10.0 day
[28] = AUC (0 to 6 hrs) in DSS-induced colitis C57BL/6 mouse model at 25 mg/kg, po measured up to 6 hrs by UPLC-MS/MS analysis; assay type: ADME, organism-based; parameters: route oral, dose 25 mg/kg, time <=6; details: in vivo
[29] = Metabolic stability in DSS-induced C57BL/6 inflammatory mouse model colonic flora homogenate assessed as half life measured up to 12 hrs by HPLC analysis; assay type: ADME; details: C57BL/6, mouse

half-life [1]: > 12 h | half-life [6]: > 12 h | Tmax [7]: 4 h | half-life [9]: > 12 h | half-life [11]: > 12 h | half-life [12]: > 12 h | AUC [16]: 16.61 microM/L.hr | half-life [18]: > 12 h | half-life [19]: > 12 h | half-life [21]: > 12 h | inhibition (INH) [22]: Not Active | half-life [24]: > 12 h | AUC [28]: 54.65 microM/L.hr | half-life [29]: > 12 h
Structure (SMILES): O=C(O)[C@@H](CO)NC(=O)[C@H]1C[C@@H](O)CN1
Activity (Mus musculus [2]): 72.8% | Activity (Mus musculus [3]): Active | Activity (Mus musculus [4]): Active | Activity [5]: Non-Toxic | Activity (Mus musculus [8]): 47.5% | Activity [10]: Non-Toxic | Activity [13]: Non-Toxic | fold change (FC) (Mus musculus [14]): 1.5 | Activity (Mus musculus [15]): Active | Activity (Mus musculus [17]): Active | Activity [20]: Non-Toxic | Activity (Mus musculus [23]): 59.7% | Activity (Mus musculus [25]): Active | fold change (FC) (Mus musculus [26]): 1.2 | Activity (Mus musculus [27]): Active
